Experimental data: patent US20220098197A1, “SALTS OF HETEROCYCLIC COMPOUND AND USE THEREOF” (priority 2019, published 2022)

Experiments:
CS-induced ALI mice = assay: CS-induced lung injury model: albumin assay in BALF; assay type: in vivo, Balb/c mice; conditions: CT-NA 10 and 30 mg/kg intragastric; CS exposure; p<0.01
Protocol: Model preparation: The mice were randomly divided into 5 groups (12 mice in each group), which were the control group (the mice were exposed to fresh air), the saline group (the mice were exposed to cigarette smoke), dexamethasone (Dex) group (1 mg/kg) (the mice were exposed to cigarette smoke), CT-NA 10 mg/kg group and CT-NA 30 mg/kg group (the mice were exposed to cigarette smoke). According to the grouping, the mice were intragastrically administered saline, Dex and CT-NA, respectively. Thereafter, the mice were exposed to fresh air or cigarette smoke generated from 3R4F research-grade cigarettes (containing about 600 mg TPM/m^3 and 29.9 mg nicotine/m^3) in a cuboid plastic box (65×50x×45 cm). Ten cigarettes were burned every day for seven days. After one cigarette was burned, the next cigarette was ignited. The daily body weight and general condition of the mice were checked. 24 hrs after the last exposure to the cigarette smoke, the partial pressure of oxygen (PO2) of all mice was measured by the Moor VMS-OXY™ measuring instrument, which was used to measure the oxygenated/deoxygenated hemoglobin concentration and oxygen saturation (percentage) in the microcirculation at the wavelength range of 500 to 650 nm. […] The albumin concentration ratio assessed from BALF represented not only the albumin level but also the permeability of the pulmonary microvascular.

RAW 264.7 macrophages = assay: Cell viability (MTT) assay with CSE/PGD2; assay type: cell-based, mouse; conditions: 24 hrs
Protocol: The cell lines of RAW 264.7 macrophages and mouse leukemic mononuclear macrophages were purchased from American Type Culture Collection (ATCC, Manassas, Va., USA). RAW 264.7 macrophage was cultured in RPMI-1640 medium containing penicillin (100 U/ml), streptomycin (100 μg/ml) and 10% FBS. The cytotoxicity of CT-NA (0-100 μM) alone, and in a combination of PGD2 (0-100 μM) and CSE (1-10%) on RAW264.7 macrophage was assessed using methylthiazole-tetrazole (MTT) assay according to the manufacturer's protocol. Briefly, RAW 264.7 macrophages were seeded in a 96-well plate at a concentration of 4×10^5 cells/ml for 24 hrs, and then exposed to CT-NA (0-100 μM) at 37° C. for 1 hour. Next, RAW 264.7 macrophages were further exposed to CSE (4%) and PGD2 (10 μM) for 24 hrs, and then treated with MTT (5 mg/ml) at 37° C. for 4 hrs. Then, the supernatant of each well was replaced with DMSO (200 μl/well), and the absorbance at 570 nm was measured.

LPS-induced ALI mice = assay: LPS-induced ALI model: albumin in BALF; assay type: in vivo, Balb/c mice; conditions: CT-NA 10 mg/kg (P<0.05) and 30 mg/kg (P<0.01), Dex 1 mg/kg (P<0.01); 24 hrs after LPS
Protocol: Evans Blue was a dye that could quickly bind to albumin and was remains restricted within blood vessels because the endothelium was impermeable to albumin under normal physiological conditions. Pulmonary microvascular permeability was assessed by measuring the extravasation of Evans blue dye in the lungs. The method was briefly described as follows. The mice were randomly divided into control group (12 mice) and LPS group (48 mice). The LPS group (48 mice) was further divided into four subgroups (each subgroup contains 12 mice). To measure pulmonary microvascular permeability, the unanaesthetized mice of LPS group received intragastric instillation of NS, CT-NA at 10 mg/kg or 30 mg/kg, or Dex at 1 mg/kg respectively. One hour later, the anaesthetized mice were intratracheally instilled with NS (control group) and LPS (all LPS subgroups) at 10 μl/10 g of body weight. […] And then the absorbance of the Evans blue dye extracted in the supernatant was measured against formamide blank at 620 nm via standard curve method, and expressed as microgram of dye per 100 mg of wet lung weight. In addition, the concentration of albumin in BALF was measured at 628 nm using a spectrophotometer and an albumin measurement kit. The albumin concentration ratio assessed from BALF represented not only the albumin level but also the permeability of the pulmonary microvascular.

CN([C@@H]1CCc2c(CC(=O)[O-])c3cccnc3n2C1)S(=O)(=O)c1ccc(F)cc1.[Na+] [Sodium salt hydrate]
BALF albumin contents (CS-induced ALI mice): remarkably reduced
cytotoxicity (MTT), CSE plus CT-NA (RAW 264.7 macrophages; CSE 4% plus CT-NA up to 100 μM): non-toxic
cytotoxicity (MTT), PGD2 plus CT-NA (RAW 264.7 macrophages; PGD2 (10 μM) plus CT-NA up to 100 μM): non-toxic
albumin content in BALF (LPS-induced ALI mice): considerably reduced
